Test results: patent US20230340012A1, “NATURAL AND SYNTHETIC COMPOUNDS FOR TREATING CANCER AND OTHER DISEASES” (PACIFIC ARROW LIMITED, priority 2009, published 2023)

Columns and labels:
HepG2 = assay: MTT assay, liver (HepG2); type: cell-based, human
Method: (§1) Cells. HTB-9 (bladder), HeLa-S3 (cervix), DU145 (prostate), H460 (lung), MCF-7 (breast), K562 (leukemia), HCT116 (colon), HepG2 (liver), U2OS (bone), T98G (brain), SK-MEL-5 (Skin) and OVCAR 3, ES2 (ovary), Pancreas (Capan), Mouth (KB), Kidney(A498).
(§2) MTT Assay. The procedure for MTT assay followed the method described by Carmichael et al. (1987) with modifications. The cells were seeded into a 96-well plate at for 24 hours before drug-treatment. The cells were then exposed to the drugs for 48, 72, or 96 hours. After the drug-treatment, MTT (0.5 mg/mL) was added to cultures and incubated for an hour. The formazan (product of the reduction of tetrazolium by viable cells) formed and was dissolved with DMSO and the O.D. at 490 nm, and was measured by an ELISA reader. The MTT level of the cells before drug-treatment was also measured (T0). The % cell-growth (%G) is calculated as: %G = (TD-T0 / TC-T0) x 100(1), where TC or TD represents O.D. readings of control or drug-treated cells. When T0 > TD, then the cytotoxicity (LC) expressed as % of the control is calculated as: %LC = (TD-T0 / T0) × 100(2).

U2OS = assay: MTT assay, bone (U2OS); type: cell-based, human
Method: as §1, §2

Fibronectin = Fibronectin secretion experiment (Western blot); type: cell-based; conditions: bladder, cervix, prostate, lung, breast, leukemia, colon, liver, bone, brain, skin, ovary, pancreas, mouth, kidney cells; 24 hours
Method: Western blot is applied in this invention as a method to detect the specific proteins in treated and untreated cells with compounds in this invention, wherein the cells are bladder, cervix, prostate, lung, breast, leukemia, colon, liver, bone, brain, Skin, ovary, Pancreas(Capan), Mouth(KB), Kidney.
Cells: targeted cells were grown in RPMI 1640 medium. 1.5 million cells were seeded in a T25 flask and grown for 24 hours before drug-treatment.
Drug-treatment: Cells cultures were replaced with fresh RPMI medium containing either 2.5 ul of DMSO (as control) [D]; or 10, 20, 30, 40, 80 ug/ml of tested compounds.
After 24 hours, aliquot of culture medium was taken out for Fibronectin determination (Western blot method).
Cell viability at 24 hours was determined by MTT assay. Cultures were replaced with RPMI medium (5 ml) with MTT and incubated for an hour. The formation of formazan was dissolved in 10 ml of DMSO and OD at 570 nm was measured (MTT units). Western Blot: Spent culture medium was mixed with SDS sample buffer, boiled for 3 minutes before loading to SDS gel. Samples were applied to a 6-10% SDS gel and electrophoresis was conducted with 100 volts for 2 hours. Protein was transferred to a nitrocellulose membrane electrophoretically. The nitrocellulose blot was incubated with the first antibody and second antibody (AP conjugated, Promega S3721). The immuno-bands were developed with BCIP/NBT color development system.
Determination of Western blot band intensity: The band-images of Western blot were captured with a digital camera and the intensity of bands was determined using “Image J” software.

cancer cells = assay: Inhibition of cancer growth, cancer invasion, cell invasion or cancer cell invasion; type: cell-based
Description: The program is based on our purification methods and biological assays including the MTT assay. See International Application No. PCT/US05/31900, filed Sep. 7, 2005, U.S. Serial No. 11/289,142, filed Nov. 28, 2005, and U.S. Serial No. 11/131551, filed May 17, 2005, and PCT/US2008/002086, 1188-ALA-PCT, filed Feb. 15, 2008, 12/344,682, 1020-B1-US, filed Dec. 29, 2008. The details of Analysis of gene expression of ES2 cells after Y-treatment by Microarray, Data Analysis Methods and Western blot in PCT/US2008/002086, 1188-ALA-PCT, filed Feb. 15, 2008, and the cell invasion experiments methods in International Application PCT/US2010/0042240, filed Jul. 16, 2010.

HTB-9 = assay: MTT assay, bladder (HTB-9); type: cell-based, human
Method: as §1, §2

A498 = assay: MTT assay, kidney (A498); type: cell-based, human
Method: as §1, §2

HeLa = assay: MTT assay, cervix (HeLa); type: cell-based, human
Method: as §1, §2

Hey8A cells = assay: Inhibition of cell adhesion, Hey8A; type: cell-based; conditions: 5 ug/ml, 5 hours
Method: (§3) Methods and Results. ES2 or Hey8A cells were plated in T25 flasks with medium containing 5 ug/ml of compounds selected from structure (2A) including E4A-Tig-R, E4A-Tig-V, E4A-Tig-S, E4A-Tig-N, E4A-Tig-Q, E4A-Tig-T. Cultures were incubated for 5 hours. Attached cells were removed from flasks by trypsinization and the numbers/amounts were counted. Compared to no drug controls, 80 ± 4% of ES2 cells and 60 ± 4% of Hey8A cells were found attached to flasks under this condition. At 5 ug/ml of above compounds, over 90% of unattached cells are alive as determined by the trypan Blue exclusion assay and by their ability to re-attach to flasks when plating in medium without tested compounds. However, with 10 ug/ml tested compounds, less than 40% of cells attached to flasks and many of them are dead cells.

H460 = assay: MTT assay, lung (H460); type: cell-based, human; conditions: MTT
Method: as §1, §2
Methods: • A. Cells • -- H460 cells are derived from a Human Lung large cell carcinoma. Cells were grown in RPMI 1640 medium supplemented with 10% FCS, antibiotics and glutamine. 5000 cells were seeded in a well (96-welled plate) for one day before drug-treatment • B. Drug treatment: • -- Drug: Tig-S (stored as a 1000x stock solution in DMSO) was used. • -- Drug concentration used: from 0.15 - 20 ug/ml. • -- Drug-treatment was carried out for 1, 2 and 4 days. For the 4 days incubation, cells were fed with fresh medium (with drug) on day 2. • C. At the end of the drug-treatment, cytotoxic test was performed with MTT assay. Results: • 1. Tig-S inhibits H460 cells’ growth with the IC50 of drug 3 ug/ml. • 2. […] cells growth inhibition was observed beyond drug 5 ug/ml. • 3. No dead cell was found at drug concentration in 20 ug/ml.

K562 = assay: MTT assay, leukemia (K562); type: cell-based, human
Method: as §1, §2

OVCAR3 = assay: MTT assay, ovary (OVCAR3); type: cell-based, human; conditions: MTT
Method: as §1, §2

HCT116 = assay: MTT assay, colon (HCT116); type: cell-based, human
Method: as §1, §2

ES2 cells = assay: Inhibition of cell adhesion, ES2; type: cell-based, human; conditions: for ES2 cells attached to flasks compared to no drug controls / unattached cells alive: 5 ug/ml; for ES2 cells attached to flasks compared to no drug controls: 5 hours; for unattached cells alive: trypan Blue exclusion; for unattached cells alive / cells attached to flasks: ES2 or Hey8A; for cells attached to flasks: 10 ug/ml
Method: as §3

DU145 = assay: MTT assay, prostate (DU145); type: cell-based, human
Method: as §1, §2

T98G = assay: MTT assay, brain (T98G); type: cell-based, human
Method: as §1, §2

SK-Mel-5 = assay: MTT assay, skin (SK-Mel-5); type: cell-based, human
Method: as §1, §2

Capan = assay: MTT assay, pancreas (Capan); type: cell-based, human
Method: as §1, §2
• A. Cells: Capan cells are derived from Human pancreas carcinoma (pancreas). Cells were grown in RPMI 1640 medium supplemented with 10% FCS, antibiotics and glutamine. 10000 cells were seeded in a well (96-welled plate) for one day before drug-treatment • B. Drug treatment: • -- Drug: Tig-S (stored as a 1000x stock solution in DMSO) was used. • -- Drug concentration used: from 0.15 - 20 ug/ml. • -- Drug-treatment was carried out for 3 days. • C. At the end of the drug-treatment, cytotoxic test was performed with MTT assay. The percentage of drug-treated cells’ growth as compared to those of the no drug control is determined.

MCF-7 = assay: MTT assay, breast (MCF-7); type: cell-based, human
Method: as §1, §2

ES2 = assay: MTT assay, ovary (ES2); type: cell-based, human; conditions: MTT
Method: as §1, §2
Method: A. Cells • -WI38 is a Normal Lung fibroblast. Cells were grown in MEM medium supplemented with 10% FCS, antibiotics and glutamine. 20 K cells were seeded per well (96-welled plate) for one day before drug-treatment • -ES2 is an Ovary Clear cells carcinoma. Cells were grown in RPMI-1640 medium supplemented with 10% FCS, antibiotics and glutamine. 10 K cells were seeded per well (96-welled plate) for one day before drug-treatment.
B. Drug treatment: • -Drug: Tig-S. stored as 1000x stock solution in DMSO. • -Drug concentration used: from 0.15 - 20 ug/ml. • -Drug-treatment was carried out for 2 days (ES2) or 6 days (WI38). For the 6 days incubation, cells were fed with fresh medium (with drug) on day 3 and 5.
C. At the end of the drug-treatment, cytotoxic test was performed with MTT assay.

KB = assay: MTT assay, mouth (KB); type: cell-based, human
Method: as §1, §2

IC50 of liver (HepG2) (HepG2) [µg/mL]	IC50 of bone (U2OS) (U2OS) [µg/mL]	IC50 of cervix (HeLa) (HeLa) [µg/mL]	IC50 of lung (H460) (H460) [µg/mL]	IC50 of leukemia (K562) (K562) [µg/mL]	IC50 of ovary (OVCAR3) (OVCAR3) [µg/mL]	IC50 of colon (HCT116) (HCT116) [µg/mL]	IC50 of prostate (DU145) (DU145) [µg/mL]	IC50 of skin (SK-Mel-5) (SK-Mel-5) [µg/mL]	IC50 of breast (MCF-7) (MCF-7) [µg/mL]	Compound	inhibition of fibronectin secretion (Fibronectin)	anti-cancer activity (cancer cells)	IC50 of bladder (HTB-9) (HTB-9) [µg/mL]	IC50 of kidney (A498) (A498) [µg/mL]	Hey8A cells attached to flasks compared to no drug controls (Hey8A cells) [%]	ES2 cells attached to flasks compared to no drug controls (ES2 cells) [%]	unattached cells alive (ES2 cells)	cells attached to flasks (ES2 cells)	IC50 of brain (T98G) (T98G) [µg/mL]	IC50 of pancreas (Capan) (Capan) [µg/mL]	further results
24	20	20	18	6	23	22	15	20	18	CC=C(C)C(=O)OCC1(C)C(O)CCC2(C)C1CCC1(C)C2CC=C2C3CC(C)(C)C(O)C(OC(=O)C(C)=CC)C3(CO)C(O)CC21C (centres unmarked) [Tig-Q]	20-40%	have anti-cancer activities	10	13	60 ± 4	80 ± 4	over 90%	less than 40%	29	9	–
23	23	17	19	10	27	26	15	24	25	CC=C(C)C(=O)OCC1(C)C(OC(=O)C(C)=CC)CCC2(C)C1CCC1(C)C2CC=C2C3CC(C)(C)C(OC(=O)C(C)=CC)C(O)C3(CO)C(O)CC21C (centres unmarked) [Tig-U]	–	–	15	18	–	–	–	–	22	9	IC50 of ovary (ES2) (ES2): 17 µg/mL; IC50 of mouth (KB) (KB): 16 µg/mL
–	7	7	6.8	4	9	8	4	6	9	CC=C(C)C(=O)OCC1(C)C(O)CCC2(C)C1CCC1(C)C2CC=C2C3CC(C)(C)C(OC(=O)C(C)=CC)C(O)C3(COC(=O)C(C)=CC)C(O)CC21C (centres unmarked) [Tig-V]	20-40%	have anti-cancer activities	4	4.8	60 ± 4	80 ± 4	over 90%	less than 40%	14	–	IC50 of ovary (ES2) (ES2): 2 µg/mL; IC50 of mouth (KB) (KB): 4.5 µg/mL
